Experimental data from US8198285B2, “Pyrazine derivatives” (Astrazeneca AB, priority 2010, dated 2012).
Where a name gives a salt, the structure may show the parent alone.

Experiments:
[1] = target: DYRK1a (Dual Specificity Tyrosine Phosphorylated and Regulated Kinase 1a) (Homo sapiens, UniProt Q13627); test: Inhibitory activity against DYRK1a; type: biochemical
human GSK3β enzyme = target: T1, human GSK3β enzyme (Homo sapiens, UniProt P49841); test: In vitro GSK3β kinase assay (FRET, Z'-LYTE), Test (a); type: biochemical; details: read-out: IC50 versus human GSK3β enzyme
T1 construct: His6 (N); purchased Millipore 14-306; host or cells: baculovirus / Sf21 insect cells
Source text: This biochemical assay used a Fluorescence Resonance Energy Transfer (FRET)-based, coupled-enzyme format to determine the ability of test compounds to inhibit substrate phosphorylation by recombinant GSK3β serine/threonine kinase (Kleman-Leyer, K. et al. Drug Disc. Devel. 2003, 6:81-2). The substrate used in this assay was Z′-LYTE™ ser/Thr 9 peptide and the FRET assay kit was obtained from Invitrogen (Paisley, UK, catalogue number PV3324). N-terminal His6-tagged recombinant human GSK313, with an H350 L mutation, was expressed in baculovirus in Sf21 insect cells, purified and obtained from Millipore (Billerica, Mass., USA, catalogue number 14-306 Human).
Test compounds were prepared as 10 mM stock solutions in dimethylsulphoxide (DMSO) and diluted in DMSO as required. Aliquots (2.5 μl) of compound dilutions were added to the wells of an Optiplate-F PerkinElmer 384-well plate (Massachusetts, USA, catalogue number 6007270). Control wells that produced a maximum signal corresponding to maximum enzyme activity were created by using 100% phosphorylated peptide obtained from Invitrogen (Paisley, UK, catalogue number PV3326). A 5 μl aliquot of 100% phosphorylated peptide (100 μM in 1.33× kinase buffer) was added to all maximum control wells. 2.5 μl of 4% DMSO solution (v/v) in 1.33× kinase buffer was added to maximum control wells. Control wells that produced a minimum signal corresponding to 100% inhibited enzyme were created by adding 2.5 μl of 40 μM Staurosporine in 1.33× kinase buffer containing 4% DMSO (v/v). A 5 μl mixture of GSK3β (100 ng/μl) enzyme and non-phosphorylated substrate (Z-LYTE™ ser/Thr 9 peptide, 100 μM) in a 1.33× kinase buffer solution was added to each well except maximum control wells and the assay plate centrifuged at 270 g for 1 minute. The kinase buffer used 1.33× was obtained from Invitrogen (Paisley, UK, catalogue number PV3189) and contained 67 mM HEPES (pH 7.5), 13 mM MgCl2, 1.3 mM EGTA, 0.01% BRIJ-35. Then 2.5 μl adenosine triphosphate (28 μM) in kinase buffer was added per well, centrifuged at 270 g for 1 minute and then the assay plate was shaken for 1 hour at room temperature. A proprietary development solution was prepared by adding 58 μl of development reagent A (Invitrogen, Paisley, UK, catalogue number PV3297) to 2142 μl of development reagent B (Invitrogen, Paisley, UK, catalogue number P3127). […]
The resultant signals arising from laser light excitation at 400 nm were read using a Perkin Elmer Envision spectrophotometer (Perkin Elmer, Massachusetts, USA). […] A ratiometric method, which calculates the ratio (the Emission Ratio) of donor emission to acceptor emission after excitation of the donor fluorophore at 400 nm, quantitates reaction progress, as shown in the equation below. […]

CYP3A4 = target: T2, CYP3A4 (Homo sapiens, UniProt P08684); test: CYP3A4 inhibition (midazolam oxidation to 1'-hydroxymidazolam); type: in vitro ADME; details: E. coli expressed 3A4 membranes, midazolam 2.5 μM; read-out: IC50 CYP3A4 (estimated)
T2 construct: purchased Cypex (Dundee, UK); host or cells: E. coli (membranes)
Method: The ability of certain compounds to inhibit CYP3A4 in membranes was determined from the inhibition of midazolam oxidation to 1′-hydroxy midazolam. […] Employing an automated assay (full IC50) using the Automation Platform, up to thirteen compounds were run per plate as well as ketoconazole as a standard inhibitor of CYP3A4.
The incubations were carried out in 0.1 M phosphate buffer (pH 7.4 at 37° C.) containing DMSO (1%), midazolam (2.5 μM), phenacetin (25.7 μM), diclofenac (1.8 μM), S-mephenyloin (30.5 μM), bufuralol (8.8 μM), NADPH (1 mM), E. coli expressed 3A4 membranes (5 pmol/ml), 1A2 membranes (25 pmol/ml), 2C9 membranes (5 pmol/ml), 2C19 membranes (2.5 pmol/ml), 2D6 membranes (5 pmol/ml), and the test inhibitors ketoconazole, α-napthoflavone, sulphaphenazole, tranylcypromine and quinidine. […]
The assay was run on a robotic sample processor. […] The samples were centrifuged, transferred to a clean plate and analysed by LC MS/MS, which was conducted using an Applied Biosystems-Sciex API4000 mass spectrometer, with Agilent HP1100 binary solvent delivery pumps, and CTC HTS-PAL autosampler. […] The formation of product (1′-hydroxymidazolam) was monitored. […]
Rates of reaction were calculated for each reaction by measuring MS/MS area units. […]
The degree of inhibition of CYP3A4 was calculated and expressed as an IC50 value. […]

T2 sequence (P08684 whole entry): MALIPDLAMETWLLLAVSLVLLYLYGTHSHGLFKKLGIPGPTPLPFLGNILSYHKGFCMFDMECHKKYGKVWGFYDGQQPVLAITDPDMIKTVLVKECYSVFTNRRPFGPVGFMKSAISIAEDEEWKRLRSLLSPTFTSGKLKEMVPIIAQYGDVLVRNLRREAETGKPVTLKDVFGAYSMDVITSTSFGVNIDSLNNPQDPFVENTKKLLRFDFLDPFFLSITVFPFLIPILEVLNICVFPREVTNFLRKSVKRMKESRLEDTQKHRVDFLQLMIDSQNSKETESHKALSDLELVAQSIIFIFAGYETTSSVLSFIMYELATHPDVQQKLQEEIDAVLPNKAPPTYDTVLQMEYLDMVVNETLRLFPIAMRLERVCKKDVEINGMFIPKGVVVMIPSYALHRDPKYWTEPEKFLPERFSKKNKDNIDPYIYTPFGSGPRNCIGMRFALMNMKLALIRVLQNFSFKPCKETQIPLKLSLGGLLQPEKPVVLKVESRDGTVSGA
T1 sequence (P49841 whole entry): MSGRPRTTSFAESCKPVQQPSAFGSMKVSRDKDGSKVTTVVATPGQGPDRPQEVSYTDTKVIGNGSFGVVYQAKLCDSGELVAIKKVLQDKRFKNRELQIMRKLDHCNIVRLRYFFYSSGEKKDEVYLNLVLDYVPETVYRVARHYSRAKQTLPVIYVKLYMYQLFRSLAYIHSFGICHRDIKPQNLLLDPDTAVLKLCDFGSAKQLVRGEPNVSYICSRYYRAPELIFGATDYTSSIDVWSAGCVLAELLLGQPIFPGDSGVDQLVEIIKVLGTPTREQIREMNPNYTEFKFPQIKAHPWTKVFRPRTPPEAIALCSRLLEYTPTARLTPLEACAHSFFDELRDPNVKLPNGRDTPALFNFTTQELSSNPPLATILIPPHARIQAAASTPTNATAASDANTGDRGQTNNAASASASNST

COCCCNCCCc1ccc(-c2cnc(N)c(C(=O)Nc3cccnc3)n2)cc1 [Example 1, 3-Amino-6-(4-{3-[(3-methoxypropyl)amino]propyl}phenyl)-N-pyridin-3-ylpyrazine-2-carboxamide tri-hydrochloride]
Inhibitory activity against DYRK1a [1]: inhibitory activity | IC50 (human GSK3β enzyme): ~35 nM | IC50 (CYP3A4): > 50000 nM
